In US20100197757A1, “OXINDOLES AS KINASE INHIBITORS” (priority 2005, published 2010):

These molecules were tested on MEK (assay: IC50 column of the compound table in Example 1 (assay not given)).

| IC50 | Structure (SMILES) |
| --- | --- |
| 1.1 µM | N/C(=C1\C(=O)Nc2cc(Cl)ccc21)c1ccccc1 [No. a, 3-(Amino-phenyl-methylene)-6-chloro-1,3-dihydro-indol-2-one] |
| 0.26 µM | N/C(=C1\C(=O)Nc2ccc(Cl)cc21)c1ccccc1 [No. b, 3-(Amino-phenyl-methylene)-5-chloro-1,3-dihydro-indol-2-one] |
| 0.94 µM | N/C(=C1\C(=O)Nc2ccccc21)c1ccc(O)cc1 [No. c, 3-[Amino-(4-hydroxy-phenyl)-methylene]-1,3-dihydro-indol-2-one] |
| 2.7 µM | N/C(=C1\C(=O)Nc2ccccc21)c1ccc(I)cc1 [No. d, 3-[Amino-(4-iodo-phenyl)-methylene]-1,3-dihydro-indol-2-one] |
| 4.1 µM | N/C(=C1\C(=O)Nc2cc(Cl)ccc21)c1ccc(I)cc1 [No. e, 3-(Amino-(4-iodo-phenyl)-methylene)-6-chloro-1,3-dihydro-indol-2-one] |
| 1.1 µM | N/C(=C1\C(=O)Nc2ccc(Cl)cc21)c1ccc(I)cc1 [No. f, 3-(Amino-(4-iodo-phenyl)-methylene)-5-chloro-1,3-dihydro-indol-2-one] |
| 3.4 µM | N/C(=C1\C(=O)Nc2ccc(Br)cc21)c1cccc(I)c1 [No. n, 3-(Amino-(3-iodo-phenyl)-methylene)-5-bromo-1,3-dihydro-indol-2-one] |
| 3.1 µM | COc1ccc(/C(N)=C2/C(=O)Nc3ccccc32)cc1 [No. o, 3-[Amino-(4-methoxy-phenyl)methylene]-1,3-dihydro-indol-2-one] |
| 8.7 µM | COc1ccc(/C(N)=C2/C(=O)Nc3cc(Cl)ccc32)cc1 [No. p, 3-(Amino-(4-methoxy-phenyl)-methylene)-6-chloro-1,3-dihydro-indol-2-one] |
